Legend:
[1] = biological target: Mitogen-activated protein kinase 10 (Homo sapiens, UniProt P53779); test: Selectivity interaction (KinomeScan (DiscoverX)) EUB0000595a MAPK10; settings: at 10 µM
[2] = biological target: Ribosomal protein S6 kinase alpha-6 (Homo sapiens, UniProt Q9UK32); test: Selectivity interaction (KinomeScan (DiscoverX)) EUB0000045b RPS6KA6
[3] = biological target: T1, Tyrosine-protein kinase JAK3 (Homo sapiens) (UniProt P52333); test: Selectivity interaction (Kinase panel (Z-LYTE Assay)) EUB0001632a JAK3; settings: at 10 µM
T1 sequence (whole entry): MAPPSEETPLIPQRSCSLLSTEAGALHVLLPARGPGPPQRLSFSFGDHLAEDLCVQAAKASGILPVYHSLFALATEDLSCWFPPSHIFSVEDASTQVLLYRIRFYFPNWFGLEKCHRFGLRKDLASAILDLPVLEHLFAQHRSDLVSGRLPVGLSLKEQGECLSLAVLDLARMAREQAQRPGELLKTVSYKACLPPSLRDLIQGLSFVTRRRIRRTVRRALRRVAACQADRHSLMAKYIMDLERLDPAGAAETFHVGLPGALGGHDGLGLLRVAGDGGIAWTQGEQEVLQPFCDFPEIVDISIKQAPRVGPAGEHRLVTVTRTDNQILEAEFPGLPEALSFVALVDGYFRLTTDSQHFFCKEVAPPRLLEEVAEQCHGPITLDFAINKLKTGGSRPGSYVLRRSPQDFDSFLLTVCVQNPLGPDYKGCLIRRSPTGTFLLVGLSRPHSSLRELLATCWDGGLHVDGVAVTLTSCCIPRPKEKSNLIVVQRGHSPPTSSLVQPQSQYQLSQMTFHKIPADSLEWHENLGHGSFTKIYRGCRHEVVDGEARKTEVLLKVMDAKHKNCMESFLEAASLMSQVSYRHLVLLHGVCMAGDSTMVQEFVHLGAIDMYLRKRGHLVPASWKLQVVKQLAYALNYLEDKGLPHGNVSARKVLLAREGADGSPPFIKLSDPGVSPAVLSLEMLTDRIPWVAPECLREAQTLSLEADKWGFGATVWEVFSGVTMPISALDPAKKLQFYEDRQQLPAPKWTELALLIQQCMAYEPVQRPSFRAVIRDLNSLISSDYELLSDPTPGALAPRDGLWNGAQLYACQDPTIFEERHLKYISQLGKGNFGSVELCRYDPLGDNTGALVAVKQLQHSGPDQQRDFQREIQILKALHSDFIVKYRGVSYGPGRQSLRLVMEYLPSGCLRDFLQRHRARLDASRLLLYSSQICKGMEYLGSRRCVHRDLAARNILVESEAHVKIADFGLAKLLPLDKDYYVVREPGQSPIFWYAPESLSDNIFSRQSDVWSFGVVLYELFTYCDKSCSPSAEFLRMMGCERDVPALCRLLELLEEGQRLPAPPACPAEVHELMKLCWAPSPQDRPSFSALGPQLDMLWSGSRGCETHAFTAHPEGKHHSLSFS

[4] = biological target: Serine/threonine-protein kinase PAK 2 (Homo sapiens) (UniProt Q13177); test: Selectivity interaction (Millipore kinase profiler) EUB0000124b PAK2; settings: at 10 µM
Chain of Serine/threonine-protein kinase PAK 2 (Homo sapiens) (Q13177 whole entry): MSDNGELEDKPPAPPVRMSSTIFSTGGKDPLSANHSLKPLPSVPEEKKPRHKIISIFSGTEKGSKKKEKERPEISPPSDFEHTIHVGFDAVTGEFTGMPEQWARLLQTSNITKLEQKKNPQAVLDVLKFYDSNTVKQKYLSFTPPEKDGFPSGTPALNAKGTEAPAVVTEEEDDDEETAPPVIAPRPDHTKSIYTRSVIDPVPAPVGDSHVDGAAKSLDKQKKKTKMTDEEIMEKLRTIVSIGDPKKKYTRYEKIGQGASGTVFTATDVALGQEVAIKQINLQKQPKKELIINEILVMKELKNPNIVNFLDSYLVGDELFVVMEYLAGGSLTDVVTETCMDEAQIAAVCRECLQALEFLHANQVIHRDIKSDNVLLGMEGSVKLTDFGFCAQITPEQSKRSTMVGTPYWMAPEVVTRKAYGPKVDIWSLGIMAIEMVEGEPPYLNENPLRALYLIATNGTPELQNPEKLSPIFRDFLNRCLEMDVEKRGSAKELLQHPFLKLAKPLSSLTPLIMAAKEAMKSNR

[5] = biological target: T2, Serine/threonine-protein kinase D3 (Homo sapiens) (UniProt O94806); test: Selectivity interaction (KinomeScan (DiscoverX)) EUB0001619a PRKD3; settings: at 1 µM
T2 sequence (whole entry): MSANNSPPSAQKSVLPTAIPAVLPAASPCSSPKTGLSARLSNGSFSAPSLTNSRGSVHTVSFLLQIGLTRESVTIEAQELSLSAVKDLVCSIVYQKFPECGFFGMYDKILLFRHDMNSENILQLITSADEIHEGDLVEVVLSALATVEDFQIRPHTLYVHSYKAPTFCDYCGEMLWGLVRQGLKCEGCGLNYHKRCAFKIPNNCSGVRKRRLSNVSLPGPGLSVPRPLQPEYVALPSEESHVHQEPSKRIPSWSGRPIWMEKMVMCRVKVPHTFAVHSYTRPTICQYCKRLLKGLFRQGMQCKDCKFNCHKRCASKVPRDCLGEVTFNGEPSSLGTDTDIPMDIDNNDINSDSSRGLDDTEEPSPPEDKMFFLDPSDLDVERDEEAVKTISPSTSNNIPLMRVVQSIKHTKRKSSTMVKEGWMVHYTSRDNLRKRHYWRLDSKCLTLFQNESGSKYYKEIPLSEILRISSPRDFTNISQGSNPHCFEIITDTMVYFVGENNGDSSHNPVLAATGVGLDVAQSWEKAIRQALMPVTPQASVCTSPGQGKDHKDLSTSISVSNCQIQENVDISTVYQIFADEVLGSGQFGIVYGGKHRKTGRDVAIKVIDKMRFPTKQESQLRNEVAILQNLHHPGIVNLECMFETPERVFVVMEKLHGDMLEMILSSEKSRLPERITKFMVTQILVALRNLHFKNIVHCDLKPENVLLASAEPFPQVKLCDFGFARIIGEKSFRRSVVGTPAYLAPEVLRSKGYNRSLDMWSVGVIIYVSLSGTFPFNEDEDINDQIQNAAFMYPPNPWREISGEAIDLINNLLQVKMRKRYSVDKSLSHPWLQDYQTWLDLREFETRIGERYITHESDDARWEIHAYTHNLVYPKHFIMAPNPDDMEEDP

[6] = biological target: T3, Alpha-1B adrenergic receptor (Homo sapiens) (UniProt P35368); test: Selectivity interaction (Panel of kinases, GPCRs, ion channels and transporters (enzymatic assay)) EUB0000266bCl ADRA1B
T3 sequence (whole entry): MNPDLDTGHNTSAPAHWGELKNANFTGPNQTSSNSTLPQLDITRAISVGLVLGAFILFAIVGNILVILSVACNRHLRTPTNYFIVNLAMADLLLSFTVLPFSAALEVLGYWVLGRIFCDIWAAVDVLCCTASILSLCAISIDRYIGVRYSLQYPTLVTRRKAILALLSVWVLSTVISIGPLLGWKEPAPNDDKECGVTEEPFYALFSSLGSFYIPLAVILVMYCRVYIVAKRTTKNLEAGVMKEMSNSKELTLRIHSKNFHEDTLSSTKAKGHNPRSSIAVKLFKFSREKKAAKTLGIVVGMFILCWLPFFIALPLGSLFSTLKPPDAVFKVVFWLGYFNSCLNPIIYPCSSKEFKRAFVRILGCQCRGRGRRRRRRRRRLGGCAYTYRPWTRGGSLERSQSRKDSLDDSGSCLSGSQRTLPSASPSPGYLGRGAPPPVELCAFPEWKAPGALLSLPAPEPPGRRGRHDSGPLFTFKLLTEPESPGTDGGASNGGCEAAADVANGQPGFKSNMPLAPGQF

Chain of Ribosomal protein S6 kinase alpha-6 (Q9UK32 whole entry): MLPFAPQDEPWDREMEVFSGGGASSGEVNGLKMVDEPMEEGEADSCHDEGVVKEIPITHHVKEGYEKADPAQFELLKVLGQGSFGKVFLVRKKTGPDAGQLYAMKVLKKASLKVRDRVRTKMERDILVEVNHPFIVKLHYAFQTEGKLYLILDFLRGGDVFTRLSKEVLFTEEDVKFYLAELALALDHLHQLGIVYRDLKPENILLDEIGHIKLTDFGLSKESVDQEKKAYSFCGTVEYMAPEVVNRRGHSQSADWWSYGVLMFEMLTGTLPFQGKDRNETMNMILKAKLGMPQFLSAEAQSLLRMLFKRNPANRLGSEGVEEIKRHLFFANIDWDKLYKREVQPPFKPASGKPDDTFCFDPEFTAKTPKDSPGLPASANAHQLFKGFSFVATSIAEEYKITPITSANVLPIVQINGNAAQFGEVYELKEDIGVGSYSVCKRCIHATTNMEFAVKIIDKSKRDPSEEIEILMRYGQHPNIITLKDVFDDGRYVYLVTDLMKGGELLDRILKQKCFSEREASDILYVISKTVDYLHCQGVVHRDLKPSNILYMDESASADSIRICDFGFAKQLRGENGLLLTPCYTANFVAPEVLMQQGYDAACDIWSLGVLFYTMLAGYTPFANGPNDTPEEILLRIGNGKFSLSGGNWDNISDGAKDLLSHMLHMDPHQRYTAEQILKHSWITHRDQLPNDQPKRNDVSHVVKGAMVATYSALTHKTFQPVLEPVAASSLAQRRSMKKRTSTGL
Chain of Mitogen-activated protein kinase 10 (P53779 whole entry): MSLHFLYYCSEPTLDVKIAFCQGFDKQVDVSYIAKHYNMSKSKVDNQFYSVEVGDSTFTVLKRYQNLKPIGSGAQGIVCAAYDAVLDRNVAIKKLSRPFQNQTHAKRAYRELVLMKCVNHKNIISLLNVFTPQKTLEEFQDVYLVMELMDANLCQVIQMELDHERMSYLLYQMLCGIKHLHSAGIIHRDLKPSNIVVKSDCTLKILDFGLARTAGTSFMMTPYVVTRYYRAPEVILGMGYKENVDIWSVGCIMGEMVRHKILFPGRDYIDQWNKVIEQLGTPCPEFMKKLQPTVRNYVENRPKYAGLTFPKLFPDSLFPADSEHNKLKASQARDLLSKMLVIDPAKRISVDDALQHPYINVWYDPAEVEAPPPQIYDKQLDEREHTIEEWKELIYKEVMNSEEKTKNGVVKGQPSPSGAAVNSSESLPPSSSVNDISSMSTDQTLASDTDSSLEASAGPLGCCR

`COCC(=O)NC/C=C/c1ccc2ncnc(Nc3ccc(Oc4ccc(C)nc4)c(C)c3)c2c1` [CP-724714] was tested. Which % of control [1] did it give?
The % of control was 68%.

How did the % of control ([2]; at 1 µM) turn out when `C=CC(=O)Nc1cc(-n2c(=O)ccc3cnc4ccc(-c5ccc(NS(C)(=O)=O)cc5)cc4c32)ccc1C` was run?
Its % of control is 100%.

What about the % of control ([2]; at 10 µM) of the same compound?
The % of control was 56%.

For `Cn1cc(-n2cnc3c(NCc4nc5cc(Cl)c(Cl)cc5[nH]4)nc(N4CCOCC4)nc32)cn1`, which % of control [3] is on record?
Its % of control is 16.9%.

How did the % of control [4] turn out when `CC(=O)Nc1cccc(-n2c(=O)n(C3CC3)c(=O)c3c(Nc4ccc(I)cc4F)n(C)c(=O)c(C)c32)c1` was run?
Its % of control is 96%.

Which % of control [5] does the source give for `N#Cc1cccc(-c2c[nH]c3ncnc(N4CCOCC4)c23)c1` here?
Its % of control is 64%.

With `CCn1c(-c2nc3cc(C(=O)N4CCCC(N)C4)ccc3n2C)cc2ccccc21` (configuration not stated) as the compound, how does the pXC50 [6] read?
Its pXC50 is 5.4 M.
